The text below walks through data of patent US20050272677A1, “Delivery of a substance to a pre-determined site” (priority 2002, published 2005).

Positions count from the first letter of the chain named. In names and notes the source's numbering stands. Where two headings read alike, the source gives them in different places.

Data set [1] in a line: In vivo delivery of luciferase DNA complexed with Sunfish amphiphiles. Details: species or system mouse. The conditions noted are these: for gene expression (Luciferase) after intravenous injection of complexed DNA: 24 hours, efficiency order SF-46>SF-36>SF-6>SF-30>SF-63. The procedure: Sunfish (SF) amphiphiles were tested and compared to DOTAP, a commercially available amphiphile (Avanti Polar Lipids). The used plasmid DNA codes for Luciferase, which is expressed upon transfection. Luciferase activity represents the efficiency of transfection. Liposomes were prepared by drying the Sunfish amphiphiles or DOTAP in glass tubes under a nitrogen flow followed by being under vacuum for one hour. The lipid film was resuspended in 20% sucrose by mixing and warming up for five minutes to 60° C. in a water bath. The liposomal suspension was then sonicated for three minutes. For lipoplexes formation, plasmid DNA (30 μg/mouse) diluted in 20% sucrose was added to the liposomes (450 nmol/mouse) under mixing. The lipoplexes were allowed to rest at room temperature for […] and were intravenously injected (150 μl) in male BALB/c mice. Organs (lungs, heart, liver, spleen and kidneys) were collected 24 hours after injection for analysis. Luciferase activity was measured in homogenates of the different organs and related to a standard curve obtained with purified recombinant Luciferase.

Data set [2] can be described thus: Gelation in the presence of surfactants and polymeric micelles. Details: key: G = gel; C = crystalline; G^a: ^a= not stable. The class given is physicochemical.
A short description of data set [3]: Gelation experiment (gel formation in solvents). The class given is physicochemical. Details: key to Gelation properties: g = gel; i = insoluble; p = precipitate; sol = soluble. On the procedure: To obtain a gel or to thicken the solvent, the compound is mixed with the required solvent or a mixture of solvents in an amount between 0.01 and 50 wt. %, based on the weight of the composition. Typically, the dissolution of the components will be performed by heating (in some cases it may be helpful to homogenize the components, e.g., vortex) them together at temperatures of 20° C. to 200° C., preferably 50° C. to 150° C. Cooling these hot solutions to a preferred temperature in the range of −20° C. to 100° C., preferably 4° C. to 100° C. affords the gel or thickened solvent. […] In an alternative embodiment, the gelling agent is first dissolved in a polar or apolar solvent followed by the addition of another solvent or solvent mixture, thereby causing gelation to take place.
It will be understood that the use of the present gelling agents or thickeners to prepare a gel or to thicken a composition is also encompassed by the invention. As is well-known, gelling behavior of compounds or compositions is highly unpredictable. […] Preferably, the gelling phenomenon is thermoreversible.
In a typical gelation experiment, a carefully weighed amount of the dithienylcyclopentene derivative under investigation and 1 ml of the solvent are placed in a test tube, which is sealed and then heated until the compound is dissolved. The solution is allowed to cool to room temperature. […] The gelation process could be followed by UV-vis and CD spectroscopy as depicted in FIG. 58. At low concentrations (0.35 mM), compound D is dissolved in toluene. […] Increasing the concentration to 1.8 mM causes gelation of the solvent, which is accompanied by a change of the UV-visible spectrum, together with the appearance of a strong CD signal at 323 nm (FIG. 58, panels (a) and (c)). Similar changes in the UV-vis and CD spectrum are observed upon gelation of the 1.8 mM solution of D in toluene by cooling to a temperature below the sol-gel phase transition (from here on, referred to as gel(o)). From a plot of the increase of the CD signal versus the temperature, the sol-gel phase transition temperature of gel(o) was determined to be 29° C. for a 1.8 mM solution of D in toluene.

Data set [4] in a line: pH as stimulus for gel-to-sol and sol-to-gel transitions. The class given is physicochemical. The text has this:
Addition of base to a gel of 1 led to a decrease in melting temperature of the gel. Above pH>4.06, gelation was no longer observed (reversible process; see FIG. 50).
Compound 15 can gelate water and undergoes a sol-to-gel transition around pH=4.93 at room temperature (for a 0.5 wt % gel).

Data set [5] is described as follows: Gelation in the presence of surfactants and polymeric micelles. The class given is physicochemical. Details: key: g = gel; i = insoluble; p = precipitate; sol = soluble.
Data set [6] relates to pB104 strain (MscL null E. coli). In words: Growth assay of MscL mutants on agar plates with or without IPTG. The class given is cell-based. Details: key: ++++: growth equal to cells expressing wild-type MscL; growth is indicated by ++++ to −; growth is indicated by ++++ to −; growth is indicated by ++++ to −; −: an absence of growth. As to conditions: pB104 with Lac-inducible plasmid; for Growth on agar plates +IPTG: with IPTG; for Growth on agar plates −IPTG: without IPTG. The procedure:
The constructs of the MscL-6His mutants were constructed using standard molecular biology techniques. The mutants were tested in the pB104 strain (MscL null E. coli) by a growth assay on agar plates with or without IPTG (K. Yoshimura et al., 1999, Biophys. J. 77:1960-1972).
The first phenotype (++) grows like the single G22S mutant.

As for `CCCCCCCC/C=C\CCCCCCCCCc1cc[n+](CCCCCCCCCCCCCCCCCC)cc1` [SF-46, 1-stearyl-4-(10′-cis-nonadecenyl)-pyridinium Chloride], in data set [1] (24 hours after i.v. injection), the “Luciferase activity in the lungs compared to DOTAP” value was “five times higher”. Moreover, the “gene expression (Luciferase) after intravenous injection of complexed DNA” value (from here on “gene expression (Luciferase)”) in data set [1] was “resulted in gene expression in the lungs”.
Take `CCCCCCCC/C=C\CCCCCCCCCc1cc[n+](CCCCCCCC/C=C\CCCCCCCC)cc1.[Cl-]` [SF-6, 1-(9′-cis-octadecenyl)-4-(10″-cis-nonadecenyl)pyridinium Chloride]: in data set [1], the “gene expression (Luciferase)” value is listed as “resulted in gene expression in the lungs”.
For `O=C(OCCO)[C@H](Cc1ccccc1)NC(=O)[C@H]1C[C@@H](C(=O)N[C@@H](Cc2ccccc2)C(=O)OCCO)C[C@@H](C(=O)N[C@@H](Cc2ccccc2)C(=O)OCCO)C1` [gelator 2, CHexAmPheOCH2CH2OH], the Gelation properties entry in data set [2] (Nonionic (Lactose der.) < CMC) is “G^a”; in data set [2] (Nonionic (Lactose der.) > CMC), “G^a”; in data set [2] (Pluronic P 105, 5 mg · ml^−1), “g^a”; in data set [2] (Pluronic P 105, 100 mg · ml^−1) it was “g^a”; in data set [2] (anionic (SDS) < CMC), “G^a”; in data set [2] (anionic (SDS) > CMC), “G^a”. Also, the Gelation properties result in data set [2] (cationic (CTAB) < CMC) and in data set [2] (cationic (CTAB) > CMC) was “G^a” each time. The solvents gelated result in data set [3] was “water and lower alcohols”.
With `CSCC[C@H](NC(=O)[C@H]1C[C@@H](C(=O)N[C@@H](CCSC)C(=O)NCCc2c[nH]cn2)C[C@@H](C(=O)N[C@@H](CCSC)C(=O)NCCc2c[nH]cn2)C1)C(=O)NCCc1c[nH]cn1` [gelator 15, CHexAmMetHista], the “pH of sol-to-gel transition” value in data set [4] is listed as about 4.93. Further, the solvents gelated result in data set [3] (listed as 15) is “water”; in data set [3] (listed as CHex-Am-Met-Hista) it was “water and lower alcohols”.
As to CHexAmPheGlyOH [gelator 3], the “effect of sufficient amounts of base on the gel” value in data set [4] was “causes dissolution of these gels”.
CHexAmAspOMe [gelator 8]: the “effect of sufficient amounts of base on the gel” value in data set [4] is listed as “causes dissolution of these gels”.
As to `O=C(NCCOCCO)[C@H](Cc1ccccc1)NC(=O)[C@H]1C[C@@H](C(=O)N[C@@H](Cc2ccccc2)C(=O)NCCOCCO)C[C@@H](C(=O)N[C@@H](Cc2ccccc2)C(=O)NCCOCCO)C1` [gelator 4, CHexAmPheNHCH2CH2OCH2CH2OH], the Gelation properties result is “p” in data set [5] (Pluronic P 105, 5 mg · ml^−1); “p” in data set [5] (Pluronic P 105, 100 mg · ml^−1); “G” in data set [2] (Nonionic (Lactose der.) < CMC); “G” in data set [2] (Nonionic (Lactose der.) > CMC); “G” in data set [2] (anionic (SDS) < CMC); “G” in data set [2] (anionic (SDS) > CMC). Besides, the Gelation properties entry in data set [2] (cationic (CTAB) < CMC) and in data set [2] (cationic (CTAB) > CMC) was “G” each time. In addition, in data set [3], the solvents gelated result was “water and lower alcohols”.
For `CCCCCCCCCCCCCCCC[n+]1ccc(CCCCCCCCCCCCC)cc1.[Cl-]` [SF-36, 1-hexadecyl-4-tridecyl-pyridinium Chloride], the “gene expression (Luciferase)” value in data set [1] is given as “resulted in gene expression in the lungs”.
Same read-out and setting: as for `CCCCCCCC/C=C\CCCCCCCC[n+]1ccc(CCCCCCCCCCCCC)cc1.[Cl-]` [SF-30, 1-(9′-cis-octadecenyl)-4-tridecyl-pyridinium Chloride], the entry is “resulted in gene expression in the lungs”.
Turning to racemic CHex-bisurea dihexylamine [5b], the Gelation properties entry was “sol” in data set [3] (1 N NaHCO3); “g” in data set [3] (1 N NaOH); “g” in data set [3] (25% Ammonia); “sol” in data set [3] (buffer PH 5.7); “sol” in data set [3] (buffer PH 6.3); “g” in data set [3] (buffer PH 7.2). Besides, the Gelation properties entry in data set [3] (buffer PH 7.9) and in data set [3] (water) was “g” in each case.

B1: E06/G22S (protein, UniProt P0A742 1-136, looked up, variant E6H G22S)
Large-conductance …: MSIIKHFREFAMRGNVVDLAVSVIIGAAFGKIVSSLVADIIMPPLGLLIGGIDFKQFAVTLRDAQGDIPAVVMHYGVFIQNVFDFLIVAFAIFMAIKLINKLNRKKEEPAAAPAPTKEEVLLTEIRDLLKEQNNRS
B1: in data set [6], the “Growth on agar plates +IPTG” value is on record as “+++” and the “Growth on agar plates −IPTG” value is “++++”.

B2: A11H (protein, UniProt P0A742 1-136, looked up, variant A11H)
Large-conductance …: B1 Large-conductance … with H6E, A11H, S22G
In the case of B2, in data set [6], the “Growth on agar plates +IPTG” value is “++++” and the “Growth on agar plates −IPTG” value is reported as “++++”.

B3: R13H (protein, UniProt P0A742 1-136, looked up, variant R13H)
Large-conductance …: B1 Large-conductance … with H6E, R13H, S22G
As for B3, in data set [6], the “Growth on agar plates +IPTG” value is given as “+++” and the “Growth on agar plates −IPTG” value is “++++”.

B4: M12H/G22S (protein, UniProt P0A742 1-136, looked up, variant M12H G22S)
Large-conductance …: B1 Large-conductance … with H6E, M12H
As for B4, in data set [6], the “Growth on agar plates +IPTG” value is “++” and the “Growth on agar plates −IPTG” value is “++++”.

B5: R13H/G22S (protein, UniProt P0A742 1-136, looked up, variant R13H G22S)
Large-conductance …: B1 Large-conductance … with H6E, R13H
Consider B5, for which, in data set [6], the “Growth on agar plates +IPTG” value is on record as “−” and the “Growth on agar plates −IPTG” value is recorded as “++++”.

B6: M12H (protein, UniProt P0A742 1-136, looked up, variant M12H)
Large-conductance …: B1 Large-conductance … with H6E, M12H, S22G
For the molecule B6, in data set [6], the “Growth on agar plates +IPTG” value was “++++” and the “Growth on agar plates −IPTG” value is on record as “++++”.

B7: F10H/G22S (protein, UniProt P0A742 1-136, looked up, variant F10H G22S)
Large-conductance …: B1 Large-conductance … with H6E, F10H
For the molecule B7, in data set [6], the “Growth on agar plates +IPTG” value is “+” and the “Growth on agar plates −IPTG” value was “++++”.

B8: F10H (protein, UniProt P0A742 1-136, looked up, variant F10H)
Large-conductance …: B1 Large-conductance … with H6E, F10H, S22G
With B8, in data set [6], the “Growth on agar plates +IPTG” value is recorded as “++++” and the “Growth on agar plates −IPTG” value is reported as “++++”.

B9: A11H/G22S (protein, UniProt P0A742 1-136, looked up, variant A11H G22S)
Large-conductance …: B1 Large-conductance … with H6E, A11H
For B9, in data set [6], the “Growth on agar plates +IPTG” value is listed as “++” and the “Growth on agar plates −IPTG” value is reported as “++++”.
